Data taken from patent publication US7217739B2, “Method for inducing cell death with carbonyl scavengers” (Arizona Board of Regents on behalf of the University of …, priority 2004, dated 2007).

How the values were obtained:
human A431 cells = test: Apoptosis in squamous cell carcinoma line A431; type: cell-based; details: 10 mM, 24 hours
Experimental: In each case, 10 mM of the test compound was used, over 24 hours, on human A431 cells, and apoptosis was measured as described, supra.

[1] = test system: human melanoma cell line G-361; test: Apoptosis by annexin V-FITC/propidium iodide flow cytometry, G-361 melanoma; type: cell-based; details: G-361 cells
Experimental: (§1) The murine melanoma cell line B16 was used, as were three human melanoma lines, i.e., G-361, A-375, and LOX. Samples of the cells were exposed to 10 mM of D-penicillamine continuously, over a 24 hour period. Apoptosis was measured using a standard assay, i.e., flow cytometric staining using annexin V-FITC/propidium iodide. As a control, normal human skin fibroblasts, i.e., “CF3” cells, were used.
The compound D-penicillamine (D-P), aminoguanidine (AG), N-acetyl-D-penicillamine (NAP), N-acetyl-L-cysteine (NAC), and penicillamine disulfide (PSS) were tested. D-P, NAC and NAP are known as antioxidants. D-P and aminoguanidine are known as carbonyl scavengers.

[2] = test system: CF3 fibroblast in collagen matrix; test: Dermal melanoma reconstruct, fibroblast network; type: cell-based, human; details: 12.5 mM; A375 and CF3 cells embedded in a collagen matrix
Description: (§2) A dermal melanoma reconstruct was made, where both CF3 fibroblast and A375 melanoma cells were embedded in a collagen matrix. Seventy two hours after “seeding” in the matrix, the melanoma cells have proliferated extensively, as the controls show, in FIG. 7.

[3] = test system: Human HeLa cervical adenocarcinoma cells; test: Apoptosis in HeLa cervical adenocarcinoma cells; type: cell-based
Experimental: The efficacy of the compounds on other cancers, epithelial cancers in particular, was determined. Human HeLa cervical adenocarcinoma cells were used, and tested with D-penicillamine, at 10 mM, and aminoguanidine, at 25 mM.

[4] = test system: A375 melanoma cells in collagen matrix; test: Dermal melanoma reconstruct, melanoma cells; type: cell-based, human; details: 12.5 mM; A375 and CF3 cells embedded in a collagen matrix
Description: as §2

[5] = test system: murine melanoma cell line B16; test: Apoptosis by annexin V-FITC/propidium iodide flow cytometry, B16 melanoma; type: cell-based; details: B16 cells; continuous 24 hour exposure; D-penicillamine 10 mM
Experimental: as §1

[6] = test system: human melanoma line A-375; test: Apoptosis by annexin V-FITC/propidium iodide flow cytometry, A-375 melanoma; type: cell-based
Experimental: as §1
(§3) Malignant human melanoma cells A375, and normal fibroblasts (CF3), were tested, using 10 mM of MEC, with 24 hours of exposure.

[7] = test system: premalignant, immortalized human keratinocytes HaCaT; test: Apoptosis in premalignant immortalized keratinocytes; type: cell-based; details: HaCaT cells; 12.5 mM; continuous over 24 hours
Experimental: In these experiments, D-penicillamine was added, at a concentration of 12.5 mM, to premalignant, immortalized human keratinocytes, or “HaCaT” cells, and the exposure was Continuous over 24 hours.

[8] = test system: normal human skin fibroblasts CF3; test: Apoptosis by annexin V-FITC/propidium iodide flow cytometry, normal CF3 fibroblasts; type: cell-based
Experimental: as §1, §3

human melanoma line LOX = test: Apoptosis by annexin V-FITC/propidium iodide flow cytometry, LOX melanoma; type: cell-based; details: LOX cells; continuous 24 hour exposure; D-penicillamine 10 mM
Experimental: as §1

[9] = Example 6, concentration not given

## CC(C)(S)[C@@H](N)C(=O)O [D-penicillamine, 3-mercapto-D-valine]
Human A431 cells
  induction of apoptosis: induction of apoptosis
[1]; [9]
  induction of apoptosis: induced apoptosis
[1]; continuous 24 hour exposure, D-penicillamine 10 mM
  induction of apoptosis: apoptosis was induced
[2]
  structure integrity of the fibroblast collagen network: maintained the structure integrity of the fibroblast collagen network
[3]; 10 mM
  induction of apoptosis: apoptosis inducers
[4]
  elimination of melanoma cells from dermal melanoma reconstruct: eliminated the melanoma cells
[5]
  induction of apoptosis: apoptosis was induced
[6]; A-375 cells, continuous 24 hour exposure, D-penicillamine 10 mM
  induction of apoptosis: apoptosis was induced
[7]
  induction of apoptosis: apoptosis is indicated
[8]; normal CF3 cells, continuous 24 hour exposure, D-penicillamine 10 mM
  induction of apoptosis: no change
Human melanoma line LOX
  induction of apoptosis: apoptosis was induced

## N=C(N)NN [aminoguanidine]
[1]; [9]
  induction of apoptosis: induced apoptosis
[3]; 25 mM
  induction of apoptosis: apoptosis inducers

## CCC(C)(S)[C@H](N)C(=O)O (stereo partly drawn) [MEC, 3-methyl-3-ethyl-L-cysteine]
[6]; A375 cells, 10 mM of MEC, 24 hours of exposure
  induction of apoptosis: Pronounced induction of apoptosis
[8]; normal CF3 fibroblasts, 10 mM of MEC, 24 hours of exposure
  induction of apoptosis: none was observed

## COC(=O)[C@H](N)C(C)(C)S [D-penicillamine methyl ester]
Human A431 cells
  induction of apoptosis: induction of apoptosis
Human A431 cells; listed as D-P—OCH3
  induction of apoptosis: stronger apoptotic effect
